Source: patent publication EP0054578A1, “N-(substituted chromone-3-carbonyl)-phenylglycine derivatives” (Eisai Co., Ltd., priority 1980, dated 1982)
Values after ≈ are worked out from the molar mass of the structure shown.

What was measured:
Assay in all cases: Antibacterial activity (MIC)
Type in all cases: cell-based
[1] = test system: Serratia marcescens ES-75; conditions: ES75
[2] = test system: Staphylococcus aureus 209-P
Escherichia coli NIHJ = test system: Escherichia coli NIHJ
Proteus morganii EP-14 = conditions: Morganella morganii, EP14
[3] = test system: Klebsiella pneumoniae EK-6; conditions: EK6
[4] = test system: Pseudomonas aeruginosa EP-172; conditions: EP172

MIC [1] [µg/mL] | MIC [2] [µg/mL] | MIC (Escherichia coli NIHJ) [µg/mL] | MIC (Proteus morganii EP-14) [µg/mL] | MIC [3] [µg/mL] | MIC [4] [µg/mL] | Compound
≤ 0.05 | 6.25 (≈ 7.19 µM) | 0.4 (≈ 0.46 µM) | 1.56 (≈ 1.79 µM) | ≤ 0.05 | 0.8 (≈ 0.92 µM) | CCOC(=O)Oc1cc2occ(C(=O)N[C@@H](C(=O)N[C@@H]3C(=O)N4C(C(=O)O)=C(CSc5nnnn5CC(=O)O)CS[C@H]34)c3ccc(O)cc3)c(=O)c2cc1OC(=O)OCC [Preparatory Example 2 A, 7β-[D-2-{6,7-bis(ethoxycarbonyloxy)chromone-3-carboxamido}-2-(4-hydroxyphenyl)acetamido]-3-[(1-carboxymethyl-5-tetrazolyl)thiomethyl]-3-cephem-4-carboxylic acid]
≤ 0.1 | 3.13 (≈ 4.31 µM) | 0.4 (≈ 0.551 µM) | 12.5 (≈ 17.2 µM) | ≤ 0.1 | 0.8 (≈ 1.1 µM) | O=C(O)Cn1nnnc1SCC1=C(C(=O)O)N2C(=O)[C@@H](NC(=O)[C@H](NC(=O)c3coc4cc(O)c(O)cc4c3=O)c3ccc(O)cc3)[C@H]2SC1 [Preparatory Example 2 B, 7β-[D-2-(6,7-Dihydroxychromone-3-carboxyamido)-2-(4-hydroxyphenyl)acetamido]-3-[(1-carboxymethyl-5-tetrazolyl)thiomethyl]-cephem-4-carboxylic acid]
